Series [1] has as its system First-order mesenteric arteries (MA1). Briefly: Wire myography: relaxation to 8-Br-cGMP of α-toxin permeabilized, calcium-clamped arteries. The arrangement: species or system mouse. The settings on record: for EC50: α-toxin permeabilized, pCa6. The source says: (§1) First-order mesenteric arteries (2 mm length; 200-250 μm ID) were dissected free of connective tissue in a HEPES-bicarbonate physiological saline solution containing the following concentrations (in mM): 112 NaCl, 25.7 NaHCO3, 4.9 KCl, 2.0 CaCl2, 1.2 MgSO4, 1.2 KH2PO4, 11.5 glucose, and 10 HEPES. The solution was at pH 7.4 and maintained at 37 C for experiments. Arteries were mounted on a 4-chamber wire myograph (Model 610M, Danish Myo Technology, Aarhus, Denmark). Force was continuously recorded and measured at steady state. Starting tension (IC90) was equally applied to all arteries as previously described (Reho et al., Am J Physiol Heart Circ Physiol 307: H563-573, 2014). Arteries were then primed with 2 separate dose of phenylephrine (10 μM) and allowed to equilibrate for 20 minutes in fresh, heated HEPES-bicarbonate buffer. Intact arteries were subjected to dose response to phenylephrine (α-adrenergic agonist; 1 nM-100 μM), U46619 (thromboxane mimetic; 1 nM-10 μM), and angiotensin II (1 nM-10 μM). Maximal response of MAs to depolarization was assessed with 100 mM KCl. A subset of arteries was permeabilized with α-toxin (1000 U/mL) and subjected to calcium clamp in high relaxing solution (pCa9) containing the following (in mM): 60 KMS, 5 EGTA, 0.02 CaCl2, 9.26 MgCl2, 5.2 Na2ATP, 25 creatine phosphate, and 25 BES with pH 7.1 (intracellular pH) by 1N KOH. Permeabilized arteries were subjected to dose response of calcium. Phenylephrine-induced calcium sensitization was performed under calcium clamp at a sub-maximal concentration of calcium (pCa6; 1 μM) with intracellular calcium stores depleted by preincubation of arteries with 10 μM A-23187. Vessels were activated with 10 μM phenylephrine with or without preincubation with L-NAME (100 μM). Vasorelaxation responses to the NO donor DEA/NO were assessed in intact arteries activated with a sub-maximal concentration of phenylephrine (10 μM). Dose response to 8-Br-cGMP (1 nM-100 μM) were assessed in α-toxin permeabilized, calcium-clamped (pCa6; 1 μM) arteries. Relaxation data are presented as percent of maximal force. All chemicals were purchased from Sigma-Aldrich (St Louis, Mo.).
(§2) All data are presented as means±SEM. Data were analyzed and graphed using SigmaPlot software (SYSTAT, Chicago, Ill.). mRNA and protein data and mean arterial pressures were analyzed using a one way ANOVA. Vascular function data were analyzed via One way ANOVA and a Bonferroni post-hoc test or Two way repeated measures ANOVA and a Bonferroni post-hoc test. EC50 were calculated via standard curve analysis. Significance was accepted with a p<0.05.

Series [2] has the same test system. Kind of series: Wire myography: vasorelaxation to DEA/NO of intact arteries activated with phenylephrine. The arrangement: species or system mouse. The settings on record: for EC50: pre-constriction with PE 10 μM, read-out: EC50 relaxation to DEA/NO.
Excerpt: as §1, with “Permeabilized arteries were subjected to dose response of calcium. Phenylephrine-induced calcium sensitization was performed under calcium clamp at a sub-maximal concentration of calcium (pCa6; 1 μM) with intracellular calcium stores depleted by preincubation of arteries with 10 μM A-23187. Vessels were activated with 10 μM phenylephrine with or without preincubation with L-NAME (100 μM).” left out, “Relaxation data are presented as percent of maximal force. All chemicals were purchased from Sigma-Aldrich (St Louis, Mo.).” left out
All data are presented as means±SEM. Data were analyzed and graphed using SigmaPlot software (SYSTAT, Chicago, Ill.). mRNA and protein data and mean arterial pressures were analyzed using a one way ANOVA. Vascular function data were analyzed via One way ANOVA and a Bonferroni post-hoc test or Two way repeated measures ANOVA and a Bonferroni post-hoc test. EC50 were calculated via standard curve analysis. […]

Series [3] has the same test system. Briefly: Wire myography: force generation, dose response to phenylephrine in intact arteries. The settings on record: Mus musculus, read-out: EC50 force generation to PE.
Excerpt: as §1, §2

The test system of series [4] is PPP1R12A (Mypt1) exon 24 flanking region. Briefly: Surveyor nuclease assay on genomic PCR products of transfected HEK293T cells. The format is cell-based, human. The conditions noted are these: constructs tested individually; for Surveyor nuclease products (sizes): control ~750 bp. As for the experimental part: HEK293T cells were seeded at a density of 1×10^5 cells/well in 24-well plates. After 24 hours, while cell confluence reached approximately 80%, cells were transfected with 1µg of sgRNA-px601 vector (experimental conditions) or px601 vector (empty vector) or pIRES-EYFP vector (positive transfection control). All transfections were performed in duplicates using Lipofectamine® 3000 Reagent (Life Technologies/ThermoFisher Scientific, Waltham, Mass.) according to the manufacturer's protocol. Twenty-four hours after transfection, a volume of 0.5 mL of culture medium was added per well (reaching a total volume of 1 mL per well). Cells were harvested 72 hours after transfection; culture medium was removed, cells were trypsinized using Gibco™ TrypLE™ Express (Life Technologies/ThermoFisher Scientific), pelleted and cell pellets were stored at −20° C. The transfection efficiency was evaluated immediately prior to harvesting of cells, by inspection of HEK293T cells transfected with pIRES-EYFP vector using a Leica MZ-FLIII fluorescence microscope equipped with a GFP filter set (Leica Microscopy Systems Ltd., Heerbrugg, Switzerland).
Genomic DNA was purified from the transfected cells using PureLink™ Genomic DNA Mini Kit (Invitrogen/ThermoFisher Scientific, Waltham, Mass.) as per the manufacturer's protocol. In order to investigate if genome editing occurred, locus PCR amplifying a 754 pb-region flanking the exon 24 of PPP1R12A gene was performed using primers MYPT12AE24F 5′-[…]-3′ (SEQ ID NO:3) (intronic region 155894 bp to 155913 bp on PPP1R12A ENSG00000058272) and MYPT12AE24R 5′-[…]-3′ (SEQ ID NO:4) (intronic region 156626 bp to 156647 bp on PPP1R12A ENSG00000058272). PCR conditions were as follows: 95° C. 5 min, then 95° C. 30 s, 53° C. 45 s, 72° C. 60 s for 30 cycles, with 5 min of final extension step at 72° C. PCR products were resolved by 2% agarose gel electrophoresis. When PCR product size was shorter than the control PCR product, genome editing occurred. For PCR products that could not be separated from the control product on 2% agarose gel due to the low resolution of the gel, a surveyor nuclease assay was performed using the Surveyor® Mutation Detection Kit (Integrated DNA Technologies, Coralville, Iowa) as per manufacturer's protocol for better visualization of the edits. The Surveyor® Mutation Detection Kit uses an endonuclease that cleaves DNA with high specificity at sites of mismatches and other distortions, allowing the detection of known and unknown DNA mutations. Briefly, target DNA is amplified by PCR from both wild-type (WT) and mutated DNA, WT and mutant DNA are then hybridized to form heteroduplexes, which are subsequently cleaved by the surveyor endonuclease. When no mutation is present, only homoduplexes are formed and no endonuclease-mediated cleavage is observed.

[5] abbreviates: E24 cKO MA1s, highest concentration.

As to `Nc1nc2c(nc(Br)n2[C@@H]2O[C@@H]3COP(=O)(O)O[C@H]3[C@H]2O)c(=O)[nH]1` [8-Br-cGMP, 8-bromo-cGMP], the EC50 in series [1] (CON mice) was 95.2 ± 11 nM; in series [1] (E24 F/+), 3 ± 2.5 nM; in series [1] (E24 F/F), 6 ± 1.5 nM. The “maximal response to 8-Br-cGMP” value in series [1] (setting [5]) is “complete relaxation”.
On to `CCN(CC)/[N+]([O-])=N/[O-].[Na+]` [DEA/NO], for which the EC50 in series [2] (E24 F/+ (cKO heterozygotes)) came out at 3.3 ± 0.5 nM; in series [2] (E24 F/F (cKO homozygotes)), 2.1 ± 0.5 nM. In addition, the “maximal response to DEA/NO” value in series [2] (setting [5]) is on record as “complete relaxation”.
On to `CNC[C@H](O)c1cccc(O)c1` [PE, phenylephrine], for which the EC50 in series [3] (336 h, CON+HS (high salt 4% NaCl, 2 weeks)) was found to be 1000 ± 500 nM; in series [3] (CON mice), 500 ± 100 nM; in series [3] (CON+NS (normal salt diet)) it was 900 ± 400 nM; in series [3] (E24 F/+), 600 ± 200 nM; in series [3] (E24 F/F+HS), 3000 ± 1000 nM; in series [3] (E24 F/F+NS) it was 400 ± 200 nM. Also, the EC50 in series [3] (E24 F/F) was 900 ± 200 nM.

B1: sgRNA6: guide RNA, target … (SEQ ID NO: 10); tested cloned in px601 SaCas9 plasmid (nucleic acid)
guide: GUAUCUGAAAGGUGACCGGCGUUUUAGUACUCUGGAAACAGAAUCUACUAAAACAAGGCAAAAUGCCGUGUUUAUCUCGUCAACUUGUUGGCGAGAUUUUU
As for B1, in series [4], the “genome editing in vitro (in words)” value is recorded as “effective genome editing” and the “Surveyor nuclease products (sizes)” value is recorded as 250/500.

B2: sgRNA9: guide RNA, target … (SEQ ID NO: 13); tested cloned in px601 SaCas9 plasmid (nucleic acid)
guide: GAGAAUGCUUAUCAUUUAAGGGUUUUAGUACUCUGGAAACAGAAUCUACUAAAACAAGGCAAAAUGCCGUGUUUAUCUCGUCAACUUGUUGGCGAGAUUUUU
For the molecule B2, in series [4], the “genome editing in vitro (in words)” value is on record as “effective genome editing” and the “Surveyor nuclease products (sizes)” value was 330/420.

B3: sgRNA12: guide RNA, target … (SEQ ID NO: 16); tested cloned in px601 SaCas9 plasmid (nucleic acid)
guide: GAUACAAAGCUAUAAAGUCAGGUUUUAGUACUCUGGAAACAGAAUCUACUAAAACAAGGCAAAAUGCCGUGUUUAUCUCGUCAACUUGUUGGCGAGAUUUUU
For the molecule B3, in series [4], the “genome editing in vitro (in words)” value is given as “effective genome editing” and the “Surveyor nuclease products (sizes)” value is 270/480.

B4: sgRNA11: guide RNA, target … (SEQ ID NO: 15); tested cloned in px601 SaCas9 plasmid (nucleic acid)
guide: GUUAUGUGUAGCAUUAAUGCAGUUUUAGUACUCUGGAAACAGAAUCUACUAAAACAAGGCAAAAUGCCGUGUUUAUCUCGUCAACUUGUUGGCGAGAUUUUU
For B4, in series [4], the “genome editing in vitro (in words)” value is listed as “effective genome editing” and the “Surveyor nuclease products (sizes)” value is 320/430.

B5: sgRNA5: guide RNA, target … (SEQ ID NO: 9); tested cloned in px601 SaCas9 plasmid (nucleic acid)
guide: GCAUUAUUUAUUAAUCUGGGAGUUUUAGUACUCUGGAAACAGAAUCUACUAAAACAAGGCAAAAUGCCGUGUUUAUCUCGUCAACUUGUUGGCGAGAUUUUU
Take B5: in series [4], the “genome editing in vitro (in words)” value is listed as “effective genome editing” and the “Surveyor nuclease products (sizes)” value is on record as 120/630.

For the origin of these results see patent publication US11607461B2, “Compositions and methods for genetically modifying myosin phosphatase target subunit (Mypt1) gene for lowering blood pressure” (University of Maryland, Baltimore, priority 2016, dated 2023).
